{"source": "the NIST ThermoML archive (doi:10.1016/j.jct.2005.01.017)", "key": {"[1]": {"conditions": "101 kPa, Liquid"}, "[2]": {"test": "xn = mol fraction of the nth substance listed", "conditions": "101 kPa, Liquid, x1 = 1"}}, "note": "Several values for one entry are separate records, joined by “and”; a condition that tells them apart may be missing. Equal entries are not always repeated. ± gives the expanded uncertainty stated by the source."}
{"smiles": "Cc1ccccc1C", "note": "[1,2-dimethylbenzene]", "values": [{"measurement": "mass density", "setting": "[1]; 293.15 K", "value": "878.6 ± 40", "unit": "kg/m3"}, {"measurement": "mass density", "setting": "[1]; 303.15 K", "value": "872.25 ± 40", "unit": "kg/m3"}, {"measurement": "mass density", "setting": "[1]; 313.15 K", "value": "859.67 ± 40", "unit": "kg/m3"}, {"measurement": "mass density", "setting": "[1]; 323.15 K", "value": "840.84 ± 40", "unit": "kg/m3"}, {"measurement": "mass density", "setting": "[1]; 333.15 K", "value": "815.74 ± 40", "unit": "kg/m3"}, {"measurement": "mass density", "setting": "[1]; 343.15 K", "value": "784.38 ± 40", "unit": "kg/m3"}]}
{"smiles": "Cc1ccccc1C", "note": "[1,2-dimethylbenzene] + CC1COC(=O)O1", "values": [{"measurement": "mass density", "setting": "[2]; 293.15 K", "value": "878.6 ± 40", "unit": "kg/m3"}, {"measurement": "mass density", "setting": "[2]; 303.15 K", "value": "872.25 ± 40", "unit": "kg/m3"}, {"measurement": "mass density", "setting": "[2]; 313.15 K", "value": "859.67 ± 40", "unit": "kg/m3"}, {"measurement": "mass density", "setting": "[2]; 323.15 K", "value": "840.84 ± 40", "unit": "kg/m3"}, {"measurement": "mass density", "setting": "[2]; 333.15 K", "value": "815.74 ± 40", "unit": "kg/m3"}, {"measurement": "mass density", "setting": "[2]; 343.15 K", "value": "784.38 ± 40", "unit": "kg/m3"}]}
{"smiles": "Cc1cccc(C)c1", "note": "[1,3-dimethylbenzene]", "values": [{"measurement": "mass density", "setting": "[1]; 293.15 K", "value": "864.2 ± 1.9", "unit": "kg/m3"}, {"measurement": "mass density", "setting": "[1]; 303.15 K", "value": "855.76 ± 2", "unit": "kg/m3"}, {"measurement": "mass density", "setting": "[1]; 313.15 K", "value": "847.11 ± 2.1", "unit": "kg/m3"}, {"measurement": "mass density", "setting": "[1]; 323.15 K", "value": "838.27 ± 2.1", "unit": "kg/m3"}, {"measurement": "mass density", "setting": "[1]; 333.15 K", "value": "829.22 ± 2.2", "unit": "kg/m3"}, {"measurement": "mass density", "setting": "[1]; 343.15 K", "value": "819.97 ± 2.3", "unit": "kg/m3"}, {"measurement": "mass density", "setting": "[1]; 353.15 K", "value": "810.51 ± 2.3", "unit": "kg/m3"}]}
{"smiles": "Cc1cccc(C)c1", "note": "[1,3-dimethylbenzene] + CC1COC(=O)O1", "values": [{"measurement": "mass density", "setting": "[2]; 293.15 K", "value": "864.2 ± 40", "unit": "kg/m3"}, {"measurement": "mass density", "setting": "[2]; 303.15 K", "value": "855.76 ± 40", "unit": "kg/m3"}, {"measurement": "mass density", "setting": "[2]; 313.15 K", "value": "847.11 ± 40", "unit": "kg/m3"}, {"measurement": "mass density", "setting": "[2]; 323.15 K", "value": "838.27 ± 40", "unit": "kg/m3"}, {"measurement": "mass density", "setting": "[2]; 333.15 K", "value": "829.22 ± 40", "unit": "kg/m3"}, {"measurement": "mass density", "setting": "[2]; 343.15 K", "value": "819.97 ± 40", "unit": "kg/m3"}, {"measurement": "mass density", "setting": "[2]; 353.15 K", "value": "810.51 ± 40", "unit": "kg/m3"}]}
{"smiles": "Cc1ccc(C)cc1", "note": "[1,4-dimethylbenzene]", "values": [{"measurement": "mass density", "setting": "[1]; 293.15 K", "value": "861 ± 1.8", "unit": "kg/m3"}, {"measurement": "mass density", "setting": "[1]; 303.15 K", "value": "852.28 ± 1.9", "unit": "kg/m3"}, {"measurement": "mass density", "setting": "[1]; 313.15 K", "value": "843.58 ± 1.9", "unit": "kg/m3"}, {"measurement": "mass density", "setting": "[1]; 323.15 K", "value": "834.92 ± 2", "unit": "kg/m3"}, {"measurement": "mass density", "setting": "[1]; 333.15 K", "value": "826.27 ± 2.1", "unit": "kg/m3"}, {"measurement": "mass density", "setting": "[1]; 343.15 K", "value": "817.66 ± 2.2", "unit": "kg/m3"}, {"measurement": "mass density", "setting": "[1]; 353.15 K", "value": "809.07 ± 2.2", "unit": "kg/m3"}]}
{"smiles": "Cc1ccc(C)cc1", "note": "[1,4-dimethylbenzene] + CC1COC(=O)O1", "values": [{"measurement": "mass density", "setting": "[2]; 293.15 K", "value": "861 ± 40", "unit": "kg/m3"}, {"measurement": "mass density", "setting": "[2]; 303.15 K", "value": "852.28 ± 40", "unit": "kg/m3"}, {"measurement": "mass density", "setting": "[2]; 313.15 K", "value": "843.58 ± 40", "unit": "kg/m3"}, {"measurement": "mass density", "setting": "[2]; 323.15 K", "value": "834.92 ± 40", "unit": "kg/m3"}, {"measurement": "mass density", "setting": "[2]; 333.15 K", "value": "826.27 ± 40", "unit": "kg/m3"}, {"measurement": "mass density", "setting": "[2]; 343.15 K", "value": "817.66 ± 40", "unit": "kg/m3"}, {"measurement": "mass density", "setting": "[2]; 353.15 K", "value": "809.07 ± 40", "unit": "kg/m3"}]}
{"smiles": "CC1COC(=O)O1", "note": "(configuration not stated) [4-methyl-1,3-dioxolan-2-one]", "values": [{"measurement": "mass density", "setting": "[1]; 293.15 K", "value": "1200.25 ± 40", "unit": "kg/m3"}, {"measurement": "mass density", "setting": "[1]; 303.15 K", "value": "1180.55 ± 40 kg/m3 and 1180.56 ± 40 kg/m3"}, {"measurement": "mass density", "setting": "[1]; 313.15 K", "value": "1161.28 ± 40", "unit": "kg/m3"}, {"measurement": "mass density", "setting": "[1]; 323.15 K", "value": "1142.43 ± 40", "unit": "kg/m3"}, {"measurement": "mass density", "setting": "[1]; 333.15 K", "value": "1123.99 ± 40", "unit": "kg/m3"}, {"measurement": "mass density", "setting": "[1]; 343.15 K", "value": "1105.98 ± 40", "unit": "kg/m3"}, {"measurement": "mass density", "setting": "[1]; 353.15 K", "value": "1088.38 ± 40", "unit": "kg/m3"}]}
